What was measured:
PPARα = molecular target: T1, PPARα (Homo sapiens, UniProt Q07869); test: Hela cell/luciferase reporter gene method, PPARα agonist activity; type: cell-based; conditions: Hela cells, pPPRE3-TK-Luciferase reporter, 24 hrs incubation; read-out: agonistic activity on PPAα (EC50)
T1 construct: expressed in transfected cells; host or cells: Hela cells
T1 sequence (Q07869 1-468): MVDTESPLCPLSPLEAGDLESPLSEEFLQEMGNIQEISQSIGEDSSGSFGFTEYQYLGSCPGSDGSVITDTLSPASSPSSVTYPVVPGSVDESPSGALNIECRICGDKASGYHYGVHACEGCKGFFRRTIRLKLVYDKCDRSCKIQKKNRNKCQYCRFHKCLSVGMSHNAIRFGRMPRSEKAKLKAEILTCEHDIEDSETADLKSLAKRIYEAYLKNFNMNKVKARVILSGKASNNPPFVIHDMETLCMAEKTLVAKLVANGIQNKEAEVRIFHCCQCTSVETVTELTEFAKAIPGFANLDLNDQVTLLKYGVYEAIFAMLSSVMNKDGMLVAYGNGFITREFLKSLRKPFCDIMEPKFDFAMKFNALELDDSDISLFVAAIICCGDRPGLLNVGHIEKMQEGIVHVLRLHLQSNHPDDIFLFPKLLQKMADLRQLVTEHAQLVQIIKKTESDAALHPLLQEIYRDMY
Description: (§1) This example measures the biological activity of a PPAR agonist using the Hela cell/luciferase reporter gene method.
(§2) The target plasmids PCMV PPARα (Ampicillin+), PCMV PPARγ (Ampicillin+), PCMV PPARδ (Ampicillin+), and pPPRE3-TK-Luciferase (Ampicillin+) were introduced into DH5a competent cells by heat shock treatment, respectively. After being incubated for 1 hour at 37° C. with shaking (180 rpm), the cells were inoculated on LB agar solid medium containing antibiotic Ampicillin, and invertedly cultured at 37° C. for 12-16 hours. Then the monoclonal colony cultured on the medium was taken and inoculated into LB liquid medium for expanded culture. The desired plasmid was extracted from the resulting bacterial solution with a Plasmid Midi Kit (Qiagen; #12143). The plasmid obtained by centrifugation was suspended in TE buffer, and the plasmid concentration was measured and the mixture was stored at −20° C. Hela cells in the exponential phase were seeded in 6-well plates (8-10^5 cells/well), and after 6-8 hours of culture, the cells were transfected using Lipofectamine® 3000 Transfection Reagent (Invitrogen; #L3000015). A plasmid containing a PPAR binding site (peroxisome proliferator response element, PPRE) and a firefly luciferase gene (pPPRE3-TK-Luciferase) and PPAR expression vector were co-transfected into a Hela cell with a total amount of plasmid DNA of 2.5 ug (the mass ratio of each PPAR expression vector is pPPRE:PPARα=6:1, pPPRE:PPARδ=8:1, and pPPRE:PPARγ=2:1) to construct a drug screening cell model for PPAR agonists. PPAR was binded to the ligand and then binded to the peroxisome proliferator response element (PPRE), thereby initiating downstream firefly luciferase expression and its expression intensity was directly proportional to the degree of PPAR activation. The cells after 24 hours transfection were prepared into a cell suspension with a cell concentration of […] by a complete culture solution, and seeded into a 96-well plate with 100 ul per well. After overnight culture, the medium was changed to a medium containing 1% FBS. 10 mM candidate compound stock (1000×) were 4-fold diluted in DMSO for 8 points, then supplemented with medium containing 1% FBS to a final concentration of 50 uM (5×) by addition of 25 μl of 5× compound diluent to each well in different concentration gradients and incubated under 37° C., 5% CO2 incubator for 24 hrs. The 96-well plate was taken out and 30 μl of Bright-Glo™ Luciferase Assay System (Promega #E2620) was added to each well. The Luciferase luminescence intensity was measured by a SynergyH1 full-function microplate detector. The obtained data was used to calculate EC50 using GraphPad Prism 5.0 software to determine the biological activity of the compound.
(§3) The agonistic activity of the compounds synthesized in Examples 1-41 on PPAR is represented by EC50 (see Table 1). EC50 refers to the drug concentration at which the compound has a 50% increase in the agonistic activity of the measured PPAR. The compound numbers in Table 1 correspond to the compound numbers in Examples 1-41.

PPARγ = molecular target: T2, PPARγ (Homo sapiens, UniProt P37231); test: Hela cell/luciferase reporter gene method, PPARγ agonist activity; type: cell-based; conditions: Hela cells, pPPRE3-TK-Luciferase reporter, 24 hrs incubation; read-out: agonistic activity on PPARγ (EC50)
T2 construct: expressed in transfected cells; host or cells: Hela cells
T2 sequence (P37231 1-505): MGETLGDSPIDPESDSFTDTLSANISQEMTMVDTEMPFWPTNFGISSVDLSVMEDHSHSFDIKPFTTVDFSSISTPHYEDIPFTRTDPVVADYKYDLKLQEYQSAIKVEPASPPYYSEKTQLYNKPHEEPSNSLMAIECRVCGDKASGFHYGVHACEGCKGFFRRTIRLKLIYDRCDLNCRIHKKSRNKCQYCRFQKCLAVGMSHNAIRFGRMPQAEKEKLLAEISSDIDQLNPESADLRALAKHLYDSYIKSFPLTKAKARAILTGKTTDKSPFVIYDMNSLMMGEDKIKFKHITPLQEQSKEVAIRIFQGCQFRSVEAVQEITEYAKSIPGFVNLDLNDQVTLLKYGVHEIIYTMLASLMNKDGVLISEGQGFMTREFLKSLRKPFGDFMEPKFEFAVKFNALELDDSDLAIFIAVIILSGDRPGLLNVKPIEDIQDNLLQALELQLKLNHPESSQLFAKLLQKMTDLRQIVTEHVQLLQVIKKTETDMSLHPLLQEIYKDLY
Description: as §1, §2, §3

PPARδ = molecular target: T3, PPARδ (Homo sapiens, UniProt Q03181); test: Hela cell/luciferase reporter gene method, PPARδ agonist activity; type: cell-based; conditions: Hela cells, pPPRE3-TK-Luciferase reporter, 24 hrs incubation; read-out: agonistic activity on PPARδ (EC50)
T3 construct: expressed in transfected cells; host or cells: Hela cells
T3 sequence (Q03181 1-441): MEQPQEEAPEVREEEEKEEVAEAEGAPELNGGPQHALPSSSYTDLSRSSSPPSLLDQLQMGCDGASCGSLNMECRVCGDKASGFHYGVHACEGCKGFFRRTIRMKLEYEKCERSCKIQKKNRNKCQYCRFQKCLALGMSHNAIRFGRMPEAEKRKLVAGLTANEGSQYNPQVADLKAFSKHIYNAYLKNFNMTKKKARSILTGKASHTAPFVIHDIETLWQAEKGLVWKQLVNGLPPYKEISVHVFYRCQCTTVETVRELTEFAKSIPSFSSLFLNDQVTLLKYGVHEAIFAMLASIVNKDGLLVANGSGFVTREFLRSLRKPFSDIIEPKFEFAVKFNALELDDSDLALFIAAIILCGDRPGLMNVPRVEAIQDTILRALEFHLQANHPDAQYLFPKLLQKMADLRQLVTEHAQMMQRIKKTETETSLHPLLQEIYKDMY
Description: as §1
as §2, with “The desired plasmid was extracted from the resulting bacterial solution with a Plasmid Midi Kit (Qiagen; #12143).” left out

[1] = Pharmacokinetic (PK) experiments after intragastric administration in rats; type: in vivo, SD rats; conditions: male, SD, rat, plasma, po, intragastric administration 20 mg/kg
Description: Male SD rats, weighing 250-300 grams, were fasted overnight before testing. The test compound was dissolved in 30% sulfobutyl-R-cyclodextrin (SBE-β-CD) and administered intragastrically at a dose of 20 mg/kg. Blood was collected 15 minutes, 30 minutes, and 1, 2, 3, 4, […] and 24 hours after the administration. About 0.3 ml of blood was collected at each time point, placed in a centrifuge tube containing K2-EDTA (dipotassium ethylenediamine tetraacetate) and centrifuged (2,000 g, 10 minutes, 4° C.) to take the plasma, which was stored in an ultra-low temperature refrigerator at −80° C. A 50 μL plasma sample was mixed with 5 μl of internal standard (IS) and extracted with ethyl acetate. The residue was redissolved in acetonitrile after drying under vacuum. The sample was filtered and injected into an LC-MS/MS for analysis.

SMILES	EC50 (PPARα)	EC50 (PPARγ)	also measured
CSc1ccc(C(=O)/C=C/c2cc(C)c(OCC(=O)O)c(C)c2)c2occc12 [Compound 13, (E)-2-(2,6-dimethyl-4-(3-(4-(methylthio)benzofuran-7-yl)-3-oxoprop-1-en-1-yl)phenoxy)acetic acid]	476 nM	3410 nM	
CSc1ccc2cc(C(=O)/C=C/c3ccc(OC(C)(C)C(=O)O)cc3)oc2c1 [Compound 56, (E)-2-methyl-2-(4-(3-(6-(methylthio)benzofuran-2-yl)-3-oxoprop-1-en-1-yl)phenoxy)propanoic acid]	83.9 nM	1100 nM	
Cc1cc(/C=C/C(=O)c2ccc3sccc3c2)cc(C)c1OC(C)(C)C(=O)O [Compound 38, (E)-2-(4-(3-(benzo[b]thiophen-5-yl)-3-oxoprop-1-en-1-yl)-2,6-dimethylphenoxy)-2-methylpropanoic acid]	> 10000 nM		EC50 (PPARδ): 838 nM
Cc1cc(/C=C/C(=O)c2cccc3ccoc23)cc(C)c1OC(C)(C)C(=O)O [Compound 3, (E)-2-(4-(3-(benzofuran-7-yl)-3-oxoprop-1-en-1-yl)-2,6-dimethylphenoxy)-2-methylpropanoic acid]	453 nM	577 nM	
Cc1ccc2cc(C(=O)/C=C/c3cc(C)c(OC(C)(C)C(=O)O)c(C)c3)oc2c1 [Compound 50, (E)-2-(2,6-dimethyl-4-(3-(6-methylbenzofuran-2-yl)-3-oxoprop-1-en-1-yl)phenoxy)-2-methylpropanoic acid]	123 nM	167 nM	
COc1ccc(C(=O)/C=C/c2cc(C)c(OC(C)(C)C(=O)O)c(C)c2)c2occc12 [Compound 1, (E)-2-(4-(3-(4-methoxybenzofuran-7-yl)-3-oxoprop-1-en-1-yl)-2,6-dimethylphenoxy)-2-methylpropanoic acid]	420 nM	172 nM	
CSc1ccc(C(=O)/C=C/c2ccc(OC(C)(C)C(=O)O)cc2)c2occc12 [Compound 12, (E)-2-methyl-2-(4-(3-(4-(methylthio)benzofuran-7-yl)-3-oxoprop-1-en-1-yl)phenoxy)propanoic acid]	99.8 nM	279 nM	
CSc1ccc(C(=O)/C=C/c2cc(C)c(OC(C)(C)C(=O)O)c(C)c2)cc1 [Elafibranor, reference compound]	29.2 nM	86.6 nM	AUC(0-inf) [1]: 1350 ng·h/mL; AUC(0-t) [1]: 1350 ng·h/mL; Cmax [1]: 1140 ng/mL; Tmax [1]: 19.8 min; half-life ([1]; read-out: Terminal T1/2 (converted)): 49.2 min
